These results are taken from article PMC7794631 (Medicinal Chemistry Research, 2021).

Read-outs that look alike come from different tables or passages of the source.

Data set [1] in a line: in vitro. The following applies: dog.
The test system of data set [2] is IAV A/WS/33 (H1N1).
The nature of data set [3]: in vitro. Conditions: human, Compound only, percent viable cells ± standard deviation.
The subject of data set [4] is HFFs. The experiment in a line: Cell viability assay. Type of data set: cell-based, human. Conditions: read-out: CC50 (μM) ± s.d., 6 days, MTS assay, mean of 2–3 dose–response determinations.
The test system of data set [5] is HCMV ADCREGFP
The following applies: HFFs; for EC50: read-out: EC50 (μM) ± s.d., GFP reporter HCMV, GFP expression 6 days after compound, mean of 2–3 dose–response determinations.

The subject of data set [6] is MDCK cells. Conditions: 24 h, T-1105 at 12.5 μM.
Data set [7] concerns HCMV immediate-early protein 2 (IE2). Conditions: infected and treated cells; cited from earlier work.
The test system of data set [8] is IAV A/WS/33 (H1N1). Kind of data set: microbe, parasite or virus in culture. Conditions: Influenza A virus, H1N1, MDCK, 24 h.
The subject of data set [9] is HCMV immediate-early protein 1 (IE1). Conditions: infected and treated cells; cited from earlier work.
Data set [10] concerns IAV A/WS/33 (H1N1). The following applies: cited from earlier work.
For data set [11], the system named is Huh-7 cells. Conditions: at 0.1 μM, Huh-7, 5 days.
Data set [12] deals with HCMV ADCREGFP
Conditions: cited from earlier work.

In data set [13] the test system is HCoV-OC43. Conditions: at 1 μM, Huh7, 5 days.
The mark [14] stands for this setting: MDCK CPE assay, p97 inhibitors 0.1, 0.25, 0.5 μM, T-1105 at 12.5 μM.

In data set [1], `Cc1cc2c(C(N)=O)cccc2n1-c1nc2c(c(NCc3ccccc3)n1)COCC2` [CB-5083] displayed a viability at 0.1 µM of 97 ± 3%. In addition, the “anti-IAV activity (in words)” value in data set [2] is listed as “no detectable anti-IAV activity”. In data set [3], this molecule displayed a viability at 0.25 µM of 59 ± 3% and a viability at 0.5 µM of 38 ± 1%. Further, the CC50 in data set [4] came to 0.53 ± 0.1 µM. Besides, the EC50 in data set [5] came out at 0.72 ± 1.1 µM.
`NC(=O)c1nccnc1O` [Compound T-1105, 3-hydroxypyrazine-2-carboxamide]: the “anti-IAV activity (in words)” value in data set [2] (setting [14]) is reported as “Clear antiviral effects”. Moreover, the “cell viability in IAV assay (in words)” value in data set [6] is listed as “retention of cell viability”.
In data set [1], `Cc1cc(OCc2nnc(SC3CCCC3)n2-c2cccnc2)ccc1-c1ccc(S(C)(=O)=O)cc1` [NMS-873] showed a viability at 0.1 µM of 89 ± 3%, a viability at 0.25 µM of 80 ± 2% and a viability at 0.5 µM of 94 ± 2%. The “anti-IAV activity (in words)” value in data set [2] (setting [14]) was “Clear antiviral effects”. The IE2 expression result in data set [7] was “reduced”. Further, in data set [8] (read-out: Compound + Virus, percent viable cells ± standard deviation, 0.1 μM, MDCK, 24 h), the inhibition at 0.1 µM came to 21 ± 7%. The inhibition at 0.25 µM in data set [8] (read-out: Compound + Virus, percent viable cells ± standard deviation, 0.25 μM, MDCK, 24 h) turned out to be 62 ± 6%. In [4], the CC50 worked out at 4.1 ± 3.3 µM. The IE1 expression entry in data set [9] is given as “not affected”. For the same molecule, the “IAV virus production (in words)” value in data set [10] is given as “inhibits virus production”. Further, in data set [6], the “cell viability in IAV assay (in words)” value is on record as “retention of cell viability”. For the same molecule, in data set [5] (HCMV), the “TI, tissue culture therapeutic index (CC50/EC50)” value was 1.9. Also, in data set [5], the EC50 came out at 2.2 ± 2.5 µM. In [11], the “effect on cell viability (in words)” value is “clear effect on cell viability”. The “HCMV replication (in words)” value in data set [12] was “reduced virus replication”.
For the molecule `CCC(CC)COC(=O)[C@H](C)N[P@](=O)(OC[C@H]1O[C@@](C#N)(c2ccc3c(N)ncnn23)[C@H](O)[C@@H]1O)Oc1ccccc1` [RDV, remdesivir], the “protection against HCoV-OC43 CPE” value in data set [13] came to 100%.
